These results are taken from US11753376B2, “Benzyloxy pyridine derivatives and uses thereof” (AUTOTAC INC., priority 2021, dated 2023).

Structures are written as SMILES.

For the assay, the system named is intracellular autophagy flux (LC3-II) in HEK293T cell line. The experiment in a line: Evaluation of intracellular autophagy activity (autophagy flux) by immunoblotting. It is filed as cell-based, human. As to conditions: HCQ 5 μM, 24 hours. How it is done:
In order to evaluate the autophagy flux activity efficacy by the compounds, the HEK293T cell line, which is a cell line derived from a human embryonic kidney-derived cell, was cultured using a DMEM medium containing 10% FBS and 1% streptomycin/penicillin in an incubator with 5% carbon dioxide. In order to measure the autophagy flux activity according to the treatment of the compounds synthesized in the above examples, each cell was dispensed in a 6-well plate. Additional incubation was carried out for 24 hours so that the cells were completely attached to the surface of the plate. Cells were collected after treatment with the compound (5 μM) alone or with the lysosomal inhibitor, hydroxychloroquine (HCQ) (5 μM) for 24 hours to determine whether the compound increases autophagy flux. […] Based on the measured total protein concentration, a sample buffer was added to each sample and reacted at 100° C. for 5 minutes. […]
FIG. 2 is a result of immunoblotting showing the efficacy of the compound (ATB1110) to activate intracellular autophagy flux. […] As HCQ was treated, the level of LC3-II, a marker of autophagy activity, was increased, and the difference between LC3-II in the untreated state and the treated state was measured. […]

With `CCN(CCO)CCCC(C)Nc1ccnc2cc(Cl)ccc12` (stereo not shown) [HCQ, hydroxychloroquine], the “level of LC3-II, a marker of autophagy activity” value was “increased”.
